Laboratory results published in patent US8648201B2, “Aminopyridine derivatives for treating tumors and inflammatory diseases” (MERCK PATENT GmbH, priority 2009, dated 2014).

How the values were obtained:
Type in all cases: biochemical
Conditions in all cases: enzyme
PDK1 = target: T1, PDK1 (Homo sapiens, UniProt O15530); assay: Test for the inhibition of PDK1 (flashplate, 33P-ATP)
T1 construct: His6 (N)
T1 sequence (O15530 51-556 limits assumed): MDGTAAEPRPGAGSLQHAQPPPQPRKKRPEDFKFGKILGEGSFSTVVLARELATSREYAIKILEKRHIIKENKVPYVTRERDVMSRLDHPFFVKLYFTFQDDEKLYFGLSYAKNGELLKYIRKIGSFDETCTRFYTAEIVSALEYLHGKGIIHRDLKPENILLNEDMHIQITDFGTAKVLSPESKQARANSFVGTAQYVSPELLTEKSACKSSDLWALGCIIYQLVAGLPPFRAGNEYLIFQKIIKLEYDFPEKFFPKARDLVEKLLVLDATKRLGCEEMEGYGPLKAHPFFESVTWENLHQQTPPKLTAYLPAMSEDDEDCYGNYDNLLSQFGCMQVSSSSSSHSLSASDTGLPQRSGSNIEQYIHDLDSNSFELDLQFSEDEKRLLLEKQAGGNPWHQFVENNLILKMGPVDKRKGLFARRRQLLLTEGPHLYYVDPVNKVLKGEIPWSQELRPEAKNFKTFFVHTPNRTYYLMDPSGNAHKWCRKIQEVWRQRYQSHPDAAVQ
Method in brief: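 His6-PDK1(1-50) (3.4 nM) incubated with biotinylated peptide substrate (400 nM), 4 μM ATP plus 33P-ATP and compound, 60 min at 30 °C. Incorporated radioactivity counted; blank with 100 nM staurosporine subtracted, activity as % of compound-free control. IC50 from dose series.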

IRAK-1 = target: T2, IRAK-1 (Homo sapiens, UniProt P51617); assay: Test for the inhibition of IRAK1 (autophosphorylation, flashplate)
T2 construct: His6 (N); Dr.Jaekel Pool B, 232Y08C1.IRK
T2 sequence (P51617 whole entry, species assumed): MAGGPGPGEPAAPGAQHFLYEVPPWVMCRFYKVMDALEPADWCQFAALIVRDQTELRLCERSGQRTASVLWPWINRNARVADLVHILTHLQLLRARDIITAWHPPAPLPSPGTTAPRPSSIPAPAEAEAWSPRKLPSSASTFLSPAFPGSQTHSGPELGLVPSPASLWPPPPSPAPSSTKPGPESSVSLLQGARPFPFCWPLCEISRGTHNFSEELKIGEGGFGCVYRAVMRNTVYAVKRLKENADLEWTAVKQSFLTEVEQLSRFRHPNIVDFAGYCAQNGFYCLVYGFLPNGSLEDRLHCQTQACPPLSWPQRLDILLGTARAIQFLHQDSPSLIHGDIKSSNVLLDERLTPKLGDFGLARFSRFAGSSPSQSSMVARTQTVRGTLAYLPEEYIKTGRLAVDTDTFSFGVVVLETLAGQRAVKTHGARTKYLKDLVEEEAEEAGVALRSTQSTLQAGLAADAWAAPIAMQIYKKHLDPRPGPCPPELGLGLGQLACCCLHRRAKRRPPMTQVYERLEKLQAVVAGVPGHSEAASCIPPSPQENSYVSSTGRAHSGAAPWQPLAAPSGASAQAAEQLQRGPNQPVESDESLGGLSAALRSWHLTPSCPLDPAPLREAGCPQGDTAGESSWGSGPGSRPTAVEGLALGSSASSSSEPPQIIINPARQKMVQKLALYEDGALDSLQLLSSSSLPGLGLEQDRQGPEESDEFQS
Method in brief: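 His6-IRAK1 (5.1 nM) autophosphorylation with 1 μM ATP plus ^33P-ATP, 180 min at 22° C, read as incorporated radioactivity. Blank with 1 μM staurosporin was subtracted and activity expressed as % of no-compound control. IC50 derived from the dilution series.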

IRAK-4 = target: T3, IRAK-4 (Homo sapiens, UniProt Q9NWZ3); assay: Test for the inhibition of IRAK4 (flashplate, 33P-ATP)
T3 construct: His6 (N); Dr.Jaekel
T3 sequence (Q9NWZ3 1-460): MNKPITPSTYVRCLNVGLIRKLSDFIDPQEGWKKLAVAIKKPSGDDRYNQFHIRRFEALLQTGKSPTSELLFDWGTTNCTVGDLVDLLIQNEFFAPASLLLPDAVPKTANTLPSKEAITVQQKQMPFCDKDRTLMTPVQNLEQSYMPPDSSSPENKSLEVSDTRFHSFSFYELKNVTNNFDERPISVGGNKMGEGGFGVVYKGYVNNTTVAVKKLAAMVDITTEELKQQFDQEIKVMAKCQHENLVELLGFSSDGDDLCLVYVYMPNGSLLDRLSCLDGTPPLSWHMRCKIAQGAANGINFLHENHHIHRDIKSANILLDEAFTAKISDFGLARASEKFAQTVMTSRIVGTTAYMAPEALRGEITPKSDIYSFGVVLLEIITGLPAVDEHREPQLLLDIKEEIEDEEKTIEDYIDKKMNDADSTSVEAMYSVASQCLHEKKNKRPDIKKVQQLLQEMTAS
Method in brief: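 His6-IRAK4 (7.3 nM) with biotinylated STK substrate 1 peptide (300 nM) and 10 μM ATP spiked with ^33P-ATP, incubated 180 min at 22° C. Incorporated radioactivity counted; blank from 1 μM staurosporine subtracted, activity expressed as % of no-compound control, IC50 by statistical fit.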

IC50 (PDK1) [µM] | IC50 (IRAK-1) [µM] | IC50 (IRAK-4) [µM] | Structure (SMILES)
0.001 to 0.1 | 0.1 to 10 | > 10 | CC1CC(=O)NN=C1c1ccc2nc(-c3cc(-c4cnn(C)c4)cnc3N)[nH]c2c1 (racemic) [Compound A1, 6-{2-[2-amino-5-(1-methyl-1H-pyrazol-4-yl)pyridin-3-yl]-3H-benzimidazol-5-yl}-5-methyl-4,5-dihydro-2H-pyridazin-3-one]
0.001 to 0.1 | 0.001 to 0.1 | 0.001 to 0.1 | COc1ccc2nc(-c3cc(-c4cnn(C5CCNCC5)c4)cnc3N)[nH]c2c1 [Compound A92, 3-(6-Methoxy-1H-benzimidazol-2-yl)-5-(1-piperidin-4-yl-1H-pyrazol-4-yl)pyridin-2-ylamine]
0.001 to 0.1 | 0.1 to 10 | 0.1 to 10 | Cn1cc(-c2cnc(N)c(-c3nc4ccc(C(=O)NCCc5ccc(F)c(F)c5)cc4[nH]3)c2)cn1 [Compound A128, N-[2-(3,4-difluorophenyl)ethyl]-2-[2-amino-5-(1-methyl-1H-pyrazol-4-yl)pyridin-3-yl]-3H-benzimidazole-5-carboxamide]
0.001 to 0.1 | 0.1 to 10 | 0.1 to 10 | COc1ccc2nc(-c3cc(-c4cnn(C)c4)cnc3N)[nH]c2c1 [Compound A43]
0.001 to 0.1 | 0.1 to 10 | 0.1 to 10 | COc1ccc2nc(-c3cc(-c4ccsc4)cnc3N)[nH]c2c1 [Compound A144, 3-(6-methoxy-1H-benzimidazol-2-yl)-5-thiophen-3-ylpyridin-2-ylamine]
0.001 to 0.1 | 0.001 to 0.1 | 0.001 to 0.1 | COc1ccc2nc(-c3cc(-c4ccc(C(=O)NC5CCN(C)CC5)s4)cnc3N)[nH]c2c1 [Compound A133, N-(1-Methylpiperidin-4-yl)-5-[6-amino-5-(6-methoxy-1H-benzimidazol-2-yl)pyridin-3-yl]thiophene-2-carboxamide]
0.001 to 0.1 | 0.1 to 10 | 0.1 to 10 | Cn1cc(-c2cnc(N)c(-c3nc4cccc(CO)c4[nH]3)c2)cn1 [Compound A52]
